{"source": "paper PMC7961786", "about": "“Magic Peptide: Unique Properties of the LRR11 Peptide in the Activation of Leukotriene Synthesis in Human Neutrophils” (International Journal of Molecular Sciences, 2021)", "key": {"[1]": {"tested_on": "human neutrophils (PMNLs), 5-LOX product synthesis", "assay": "5-LOX metabolite synthesis in human neutrophils stimulated with opsonized S. typhimurium (HPLC)", "format": "cell-based", "experimental": "Figure 1 Effects of LRR11 and ODNs on the formation of LTB4 (A,B) and the sum of 5-LOX metabolites (ω-OH-LTB4, LTB4 and its isomers, and 5-HETE) (C) in human PMNLs. PMNLs (2 × 10^7) were incubated for 15 min at 37 °C without (black bars) or with 1 μM LRR11 (A, LRR11_first); then ODNs and LRR11 or LPS were added; various ways of adding ODN and LRR11 peptide are indicated. In control samples, Hanks’ solution was added instead of ODNs. After 20 min, 0.5 × 10^9 S. typhimurium bacterial cells were added for a further 15 min. The 5-LOX products were determined using HPLC. Values indicate mean ± SEM of five independent experiments performed in duplicate. * p < 0.05, ** p < 0.01, *** p < 0.005, compared with the control. # p < 0.05, ## p < 0.01 for pairs of data compared as indicated by two-way ANOVA followed by Tukey’s multiple comparison test.\nFigure 3 Synthesis of the 5-LOX metabolites in PMNLs exposed to opsonized S. typhimurium bacteria in the presence of the RAGE antagonist FPS-ZM1. PMNLs (2 × 10^7) were incubated for 15 min at 37 °C without additives or with 0.15 µM FPS-ZM1, for the next 20 min the mixture was incubated with 1 µM ODNs without (black bars) or with 1 µM LRR11 (gray bars) before adding 5 × 10^8 S. typhimurium for 15 min. In control samples, Hanks’ solution was added instead of ODNs. The 5-LOX products were determined using HPLC. Graphical data are presented for LTB4 (A) or the sum of LTB4 and its isomers, ω-OH-LTB4 and 5-HETE, designed as Σ5LOX products (B).\nHuman neutrophils were isolated from freshly taken citrate-anticoagulated peripheral blood from healthy individuals using standard methods. Leukocyte-rich plasma was prepared by sedimentation of erythrocytes with 3% dextran T-500 at room temperature. For purification of granulocytes, centrifugation through Ficoll-Paque (density 1.077 g/mL) was used, followed by hypotonic lysis of the remaining erythrocytes. […] All methods were performed in accordance with the relevant instructions and regulations of the Ministry of Health of the Russian Federation and local legislation.\nBacteria (S. typhimurium IE 147 strain) obtained from the Collection of Gamaleya National Research Center of Epidemiology and Microbiology (Moscow, Russia) were grown in Luria–Bertani broth to a concentration of 1 × 10^9 colony-forming units (CFU)/mL. The bacteria were collected by centrifugation at 2000 g and opsonized immediately before the experiment for 30 min in 20% (v/v) fresh serum from the same donor whose blood was used to isolate neutrophils. Repeated centrifugation in Dulbecco’s solution was used to wash the bacteria.\nThe cell suspension (2 × 10^7 PMNLs in HBSS/HEPES, reaction volume of 6 mL) was cultured for 15 min in an incubator at 37 °C, 5% CO2. Then 1.0 µM ODN with or without 1.0 µM LRR11, or 2 µg/mL LPS, was added as indicated. After 20 min, the cells were stimulated with S. typhimurium (the ratio of bacteria to PMNLs was approximately 20:1) for the next 15 min [3]. The synthesis of 5-LOX metabolites was stopped by adding an equal volume of methanol at −20 °C with prostaglandin B2 as an internal standard. Samples were stored at −20 °C. The denatured cell suspension was centrifuged, and supernatants designated as water/methanol extracts.\n(§1) To purify the water/methanol extracts, solid-phase extraction was used on Sep-Pak C18 cartridges (500 mg; Macherey-Nagel, Dueren, Germany), which were conditioned first with methanol, and then with water. Major 5-LOX metabolites were identified by comparing retention times with those of known compounds, as previously described.\nTable S1. Effect of Chloroquine on 5-LOX product formation in PMNLs after ODN priming followed by the addition\nof opsonized S. typhimurium bacteria."}, "PMNLs": {"tested_on": "PMNLs", "assay": "Phagocytosis of FITC-labeled S. typhimurium by neutrophils", "format": "cell-based, human", "conditions": "1 µM ODN +/- 1 µM LRR11, FITC-labeled S. typhimurium 20 min; n = 3; Figure S2b", "experimental": "Figure S2b. Influence of LRR11 and ODNs on phagocytic activity of neutrophils. PMNLs supplemented with 1 µM ODN +/- 1 µM LRR11, except for control samples containing HBSS/HEPES instead of ODNs, were incubated for 20 min in Eppendorf tubes at 37 °C in 5% CO2 with continuous stirring. FITC-labeled S. typhimurium were then added for next 20 min, followed by FACS analysis (excitation: 488 nm, emission: 525 nm). Both the relative amounts of PMNLs involved in phagocytosis (A, B) and the fluorescence intensities, reflecting the average number of bacteria captured per cell (C, D), were estimated. To distinguish between internalized and surface-bound bacterial cells, trypan blue at a working concentration of 1 mg/ml, was used to quench the surface FITC fluorescence caused by the attached bacteria. Thus, each series of samples was duplicated to obtain results both without (A, C) and with (B, D) TB quenching, which corresponds to the total interaction and uptake of bacteria. Averaged flow cytometry data are presented, including means ± SEM for the percentages of FITC-positive (i.e., phagocytic) cells (A, B), and mean ± SEM for fluorescence intensities of FITC-positive subpopulations (C, D) (n=3; * p < 0.05; ** p < 0.01 in comparison with corresponding controls, ns – non significant, as indicated by two-way ANOVA followed by Dunnett’s or Tukey’s multiple comparison tests). […]"}, "TLR9 signaling": {"tested_on": "TLR9 signaling", "conditions": "ref [25]; cited from earlier work"}, "[2]": {"tested_on": "human neutrophils (PMNLs), 5-LOX product synthesis", "set-up": "method as in PMID 27036535", "conditions": "ref [3]; cited from earlier work"}, "[3]": {"tested_on": "human neutrophils (PMNLs)", "assay": "Binding and uptake of FAM-labeled ODNs by neutrophils (flow cytometry)", "format": "cell-based", "conditions": "0.15 µM FPS-ZM1, 15 min, then 1 µM FAM-ODN 20 min; n = 3; Figure 7", "experimental": "Figure 6 The LRR11 peptide affects the binding and uptake of ODNs by neutrophilic granulocytes. PMNLs (1 × 10^6/mL) in HBSS/HEPES were incubated for 20 min at 37 °C in 5% CO2 with 1 µM FAM-labeled ODN, supplemented or not with 1 µM LRR11 peptide. Both the total ODN accumulation (red) and its intracellular constituent (black) were analyzed by flow cytometry. Surface fluorescence was quenched by trypan blue (TB) solution. Values represent the means ± SEM of FAM fluorescence intensities (RFU, relative fluorescence units) (n = 8). ** p < 0.01; *** p < 0.005, **** p < 0.001 for specified data pairs, as indicated by two-way ANOVA followed by Tukey’s multiple comparison test. Mean fluorescence intensities of unstained PMNLs were 62 ± 12 and 39 ± 5.6 without or after TB quenching, respectively.\nFigure 7 RAGE antagonist effect on oligonucleotide penetration into neutrophil cells. […] Both total oligonucleotide accumulation (A) and its intracellular constituent (B) were analyzed by flow cytometry. The surface fluorescence was quenched by trypan blue solution. Values represent the means ± SEM of FAM fluorescence intensities (RFU) (n = 3). * p < 0.05; […]; *** p < 0.005 for the pair of data specified, as indicated by two-way ANOVA followed by Tukey’s multiple comparison test. Fluorescence intensities of unstained controls were 62 ± 14 and 49 ± 6 without, or after TB quenching, respectively. […]"}, "[4]": {"tested_on": "PMNLs, 5-LOX product formation", "assay": "5-LOX product formation in PMNLs stimulated by calcium ionophore A23187", "format": "cell-based, human", "experimental": "Human neutrophils were isolated from freshly taken citrate-anticoagulated peripheral blood from healthy individuals using standard methods. Leukocyte-rich plasma was prepared by sedimentation of erythrocytes with 3% dextran T-500 at room temperature. For purification of granulocytes, centrifugation through Ficoll-Paque (density 1.077 g/mL) was used, followed by hypotonic lysis of the remaining erythrocytes. PMNLs were washed twice in PBS, resuspended at 10^7 cells/mL (96–97% purity, 98–99% viability) in Dulbecco’s PBS containing 1 mg/mL glucose (no CaCl2) and stored at room temperature. All methods were performed in accordance with the relevant instructions and regulations of the Ministry of Health of the Russian Federation and local legislation.\nas §1"}, "[5]": {"tested_on": "vascular smooth muscle cells", "conditions": "ref [56]; cited from earlier work", "text": "RAGE is shown to bind molecules, known as damage-associated molecular patterns (DAMPs), released by cells that die or are under conditions of inflammation."}, "cells, CpG-ODN delivery": {"tested_on": "cells, CpG-ODN delivery", "conditions": "ref [43],[44]; cited from earlier work", "text": "(§2) LRR11, like LL-37, belongs to the group of cationic antimicrobial peptides, which are characterized by high content of hydrophobic residues (~40%) and overall positive charge due to the increased content of Arg and Lys residues. They block many functions of LPS [39, 40], interact with intracellular DNA, and mediate DNA uptake and transport in mammalian cells."}, "[6]": {"tested_on": "telomeric G-quadruplex DNA", "conditions": "ref [42]; cited from earlier work", "text": "as §2"}}, "note": "Oligonucleotides are written 5' to 3', each unit as a sugar letter and its base; * is a phosphorothioate linkage, no mark a phosphodiester; rarer units and linkages stand in square brackets, end groups in braces. Plain capitals give the bases only. d = 2'-deoxy (DNA)", "data": [{"compound": "5′-ggTTAGGGTTAGGGTTAGGGTTAGGGggggg-3′ (DNA dG*dG*dTdTdAdGdGdGdTdTdAdGdGdGdTdTdAdGdGdGdTdTdAdGdGdGdG*dG*dG*dG*dG) [G-rich ODN, G-rich ODN containing human telomeric tandem repeats]", "values": [{"measurement": "effect on 5-LOX activity / leukotriene synthesis", "setting": "[1]; ODN alone, 1 µM, 20 min, then opsonized S. typhimurium 15 min, Figure 1, five independent experiments in duplicate", "value": "increased leukotriene synthesis"}, {"measurement": "effect on bacteria engulfment", "setting": "PMNLs", "value": "only G-rich ODN facilitated the bacteria engulfment"}]}, {"compound": "CCN(CC)CCCC(C)Nc1ccnc2cc(Cl)ccc12", "note": "(centres unmarked) [Chloroquine]", "values": [{"measurement": "inhibition of CpG-ODN–induced cell activation", "setting": "TLR9 signaling", "value": "known to inhibit CpG-ODN–induced cell activation"}, {"measurement": "effect of chloroquine on CpG-ODN action on 5-LOX products", "setting": "[1]; 5 µM Chloroquine, B- and C-class CpG-ODNs, Table S1", "value": "the effects of B- and C-class CpG-ODNs were not sensitive to chloroquine"}, {"measurement": "Σ 5-LOX metabolites", "setting": "[1]; Table S1, 2×10^7 PMNLs, 15 min at 37 °C without or with 5 µM Chloroquine, then ODN, after 20 min 0.5×10^9 opsonized S. typhimurium for 15 min, mean ± SEM, three independent experiments", "value": "19.8 ± 2.7", "unit": "ng/107 PMNLs"}, {"measurement": "effect of chloroquine on inhibition of 5-LOX product formation by ODN 2216", "setting": "[2]", "value": "abrogated by chloroquine"}]}, {"compound": "O=C(c1ccc(Cl)cc1)N(Cc1ccccc1)C1CCCCC1", "note": "[FPS-ZM1]", "values": [{"measurement": "effect of FPS-ZM1 on 5-LOX product formation stimulated by bacterial phagocytosis", "setting": "[1]; 0.15 µM FPS-ZM1, S. typhimurium, Figure 3", "value": "inhibited the 5-LOX product formation stimulated by bacterial phagocytosis"}, {"measurement": "effect of FPS-ZM1 on ODN effects on leukotriene synthesis", "setting": "[1]; 150 nM FPS-ZM1, 15 min before 1 µM ODNs, Figure 3, four independent experiments", "value": "strongly reduce the effects of ODNs on leukotriene synthesis"}, {"measurement": "effect of RAGE antagonist on ODN internalization", "setting": "[3]", "value": "suppressed ODN internalization"}, {"measurement": "Σ 5-LOX metabolites", "setting": "[4]; 150 nM FPS-ZM1 30 min at 37 °C, then 1 µM A23187 10 min, mean ± SEM, three independent experiments", "value": "438 ± 42", "unit": "ng/10^7 PMNLs"}, {"measurement": "effect of FPS-ZM1 on A23187-induced leukotriene synthesis", "setting": "[4]; 150 nM FPS-ZM1, 1 µM A23187", "value": "did not affect the leukotriene synthesis induced by the calcium ionophore A23187"}]}, {"compound": "CCCCC/C=C\\C[C@@H](O)/C=C/C=C/C=C\\[C@@H](O)CCCC(=O)O", "note": "[LTB4, leukotriene B4, reference compound]", "values": [{"measurement": "RAGE expression / LTB4 production in vascular smooth muscle cells", "setting": "[5]", "value": "increases RAGE expression in proliferating human vascular smooth muscle cells"}]}, {"compound": "LL-37", "values": [{"measurement": "delivery of bacterial CpG-ODNs to cells", "setting": "cells, CpG-ODN delivery", "value": "promotes the rapid delivery of bacterial CpG-ODNs to cells"}, {"measurement": "complex with telomeric G-quadruplex DNA", "setting": "[6]", "value": "forms a complex with telomeric G-quadruplex DNA"}]}]}
